Assays:
MDCK cells = assay: Cell scattering behavior assay; assay type: cell-based; conditions: with 5 ng/mL HGF, 24 hours, normalized particle count compared to HGF treatment alone
In short: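 MDCK cells starved 2 h in serum-free DMEM, then treated 24 h at 37 °C with compounds plus 5 ng/mL HGF. Cells were ethanol-fixed, WGA488-stained and imaged. Scattering was scored as particle count normalized to stained area, with activity taken as a statistical increase in normalized particle count over HGF alone.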

[1] = In vitro stability in rat plasma; assay type: in vitro ADME; conditions: 5 μM, 37° C.
Procedure: (§1) Bioavailability can be estimated by compound stability when exposed to conditions in the body. As an initial assessment of stability properties in a variety of conditions present in animals, exemplary compounds were tested for stability in a battery of simulated body compartments. Compounds were tested for stability in the following solutions: simulated gastric fluid (SGF: 34.2 mM NaCl, pH 1.2), simulated gastric fluid with the digestive enzyme pepsin (SGF+Enzyme: SGF with 3.2 mg/ml pepsin), simulated intestinal fluid with the mixture of enzymes in porcine pancreatin (SIF+Enzyme: 28.7 mM NaH2PO4, 105.7 mM NaCl, pH 6.8, 10 mg/ml pancreatin), rat plasma, and human plasma.
(§2) Test compounds were incubated at a final concentration of 5 μM in the above solutions at 37° C. with samples removed at the following time points: 0, 1, 2, and 4 hours. Reactions were stopped and prepared for quantification by addition of excess quench solution containing an internal standard (acetonitrile, 200 ng/mL bucetin). Test compound and internal standard in each sample was quantified by LC-MS/MS, and after internal normalization to bucetin, test compound concentration was expressed as a percentage of concentration at the 0-hour time point. Stability in the relevant test solution was then determined by the percent remaining at the 4-hour time point.

[2] = In vitro stability in human plasma; assay type: in vitro ADME; conditions: 5 μM, 37° C.
Procedure: as §1, §2

[3] = In vivo tissue distribution; parameters: species or system Sprague-dawley rats; conditions: rat, 10 minutes post administration
Procedure: The rate of distribution to target tissues is an important feature of therapeutic molecules. Tissue distribution of exemplary compounds was performed in mixed-sex Sprague-dawley rats. Test compounds were delivered via tail vein injection (IV) and tissues were collected at Tmax (10 minutes post administration). Animals were deeply anesthetized with isoflurane and whole blood was collected from the right atrium and processed by centrifugation to produce plasma. Animals were then fully perfused with PBS administered to the left ventricle to prevent blood contamination of tissues.
Tissues were collected and homogenized, and compound content in the target tissue was quantified by LC-MS/MS. Tissue distribution rates were determined by dividing the tissue concentration of compound by the plasma concentration and multiplying by 100.

C=CCCN1CC2N(C(=O)c3ccc(C(F)(F)F)cc3)CCC(=O)N2C(C)C1=O (centres unmarked) [Compound 22]
Potency (MDCK cells): ++ (++ indicates maximum potency at or above 10 nM)
Rat Plasma, compound remaining after 4 hours [1]: +++ (+++ indicates 80-99% compound remaining after 4 hours)
Human Plasma, compound remaining after 4 hours [2]: +++ (+++ indicates 80-99% compound remaining after 4 hours)
Tissue Distribution (% Plasma exposure at 10 min post IV dose) Brain ([3]; brain): ++ (++ indicates distribution between 5 and 39%)
Tissue Distribution (% Plasma exposure at 10 min post IV dose) Cerebellum ([3]; cerebellum): ++ (++ indicates distribution between 5 and 39%)
Tissue Distribution (% Plasma exposure at 10 min post IV dose) Cortex ([3]; cortex): ++ (++ indicates distribution between 5 and 39%)
Tissue Distribution (% Plasma exposure at 10 min post IV dose) Hippocampus ([3]; hippocampus): ++ (++ indicates distribution between 5 and 39%)
Tissue Distribution (% Plasma exposure at 10 min post IV dose) Sciatic Nerve ([3]; sciatic nerve): +++ (+++ indicates distribution between 40 and 69%)
